# Several values for one entry are separate records, joined by “and”; a condition that tells them apart may be missing. Equal values may be shown once. Inconclusive results and toxic doses are left out. Residues, ends and D or L forms follow the SMILES beside them.
# Test system: BDF1 mice, P388 leukemia ip, median survival T/C
# Assay: NCI In Vivo Anticancer Drug Screen. Data for tumor model P388 Leukemia (intraperitoneal) in B6D2F1 (BDF1) mice
# Conditions: endpoint: median survival time, higher = longer survival
# In short: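 Steps: implant the tumour, treat one group with compound and another with vehicle, record survival, then divide treated by control.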
# [1] = dose: 12.5 mg/kg/injection, schedule: Q01DX009 (ip), vehicle: saline
# [2] = dose: 25.0 mg/kg/injection, schedule: Q01DX009 (ip), vehicle: saline
# [3] = dose: 100.0 mg/kg/injection, schedule: Q04DX003 (ip), vehicle: saline with Tween-80
# [4] = dose: 200.0 mg/kg/injection, schedule: Q04DX003 (ip), vehicle: saline with Tween-80
# [5] = dose: 25.0 mg/kg/injection, schedule: Q04DX003 (ip), vehicle: saline
# [6] = dose: 50.0 mg/kg/injection, schedule: Q04DX003 (ip), vehicle: saline
# [7] = dose: 100.0 mg/kg/injection, schedule: Q04DX003 (ip), vehicle: saline
# [8] = dose: 50.0 mg/kg/injection, schedule: Q01DX009 (ip), vehicle: saline with Tween-80
# [9] = dose: 100.0 mg/kg/injection, schedule: Q01DX009 (ip), vehicle: saline with Tween-80
# [10] = dose: 50.0 mg/kg/injection, schedule: Q01DX009 (ip), vehicle: saline
# [11] = dose: 100.0 mg/kg/injection, schedule: Q01DX009 (ip), vehicle: saline
# [12] = dose: 400.0 mg/kg/injection, schedule: Q04DX003 (ip), vehicle: saline with Tween-80
# [13] = dose: 200.0 mg/kg/injection, schedule: Q04DX003 (ip), vehicle: saline
# [14] = dose: 400.0 mg/kg/injection, schedule: Q04DX003 (ip), vehicle: saline
# [15] = dose: 200.0 mg/kg/injection, schedule: Q01DX009 (ip), vehicle: saline with Tween-80
# [16] = dose: 25.0 mg/kg/injection, schedule: Q01DX009 (ip), vehicle: saline with Tween-80
smiles,measurement,setting,value
O=NN(CCCl)C(=O)NC1CCCCC1,T/C,"dose: 2.4 mg/kg/injection, schedule: Q01DX009 (ip), vehicle: Klucel (hydroxypropylcellulose) (HPC)",116 % of control
same,T/C,"dose: 3.6 mg/kg/injection, schedule: Q01DX009 (ip), vehicle: Klucel (hydroxypropylcellulose) (HPC)",164 % of control
same,T/C,"dose: 4.0 mg/kg/injection, schedule: Q01DX009 (ip), vehicle: saline with Tween-80",113 % of control
same,T/C,"dose: 8.0 mg/kg/injection, schedule: Q01DX009 (ip), vehicle: saline with Tween-80",229 % of control
same,T/C,"dose: 12.5 mg/kg/injection, schedule: Q01DX009 (ip), vehicle: Klucel (hydroxypropylcellulose) (HPC)",153 % of control
same,T/C,[1],178 % of control
same,T/C,"dose: 16.0 mg/kg/injection, schedule: Q01DX009 (ip), vehicle: Klucel (hydroxypropylcellulose) (HPC)",249 % of control
same,T/C,"dose: 16.0 mg/kg/injection, schedule: Q01DX009 (ip), vehicle: saline with Tween-80",283 % of control
same,T/C,"dose: 25.0 mg/kg/injection, schedule: Q01DX001 (ip), vehicle: Klucel (hydroxypropylcellulose) (HPC)",220 % of control
same,T/C,[2],228 % of control
same,T/C,"dose: 30.0 mg/kg/injection, schedule: Q01DX001 (ip), vehicle: saline",103 % of control
same,T/C,"dose: 32.0 mg/kg/injection, schedule: Q01DX009 (ip), vehicle: saline with Tween-80",179 % of control
same,T/C,"dose: 35.0 mg/kg/injection, schedule: Q01DX009 (ip), vehicle: Klucel (hydroxypropylcellulose) (HPC)",103 % of control
same,T/C,"dose: 40.0 mg/kg/injection, schedule: Q01DX001 (ip), vehicle: saline",548 % of control and 183 % of control
same,T/C,"dose: 50.0 mg/kg/injection, schedule: Q01DX001 (ip), vehicle: Klucel (hydroxypropylcellulose) (HPC)",113 % of control
same,T/C,"dose: 50.0 mg/kg/injection, schedule: Q01DX001 (ip), vehicle: saline",174 % of control
same,T/C,"dose: 60.0 mg/kg/injection, schedule: Q01DX001 (oral), vehicle: carboxymethylcellulose (CMC)",526 % of control and 166 % of control
same,T/C,"dose: 64.0 mg/kg/injection, schedule: Q01DX009 (ip), vehicle: saline with Tween-80",88 % of control
same,T/C,"dose: 70.0 mg/kg/injection, schedule: Q01DX001 (ip), vehicle: saline",256 % of control
same,T/C,"dose: 90.0 mg/kg/injection, schedule: Q01DX001 (oral), vehicle: carboxymethylcellulose (CMC)",210 % of control and 219 % of control
same,T/C,"dose: 100.0 mg/kg/injection, schedule: Q01DX001 (ip), vehicle: carboxymethylcellulose (CMC)",219 % of control
same,T/C,"dose: 135.0 mg/kg/injection, schedule: Q01DX001 (oral), vehicle: carboxymethylcellulose (CMC)",173 % of control
same,T/C,"dose: 150.0 mg/kg/injection, schedule: Q01DX001 (ip), vehicle: carboxymethylcellulose (CMC)",526 % of control
same,T/C,"dose: 200.0 mg/kg/injection, schedule: Q01DX001 (oral), vehicle: carboxymethylcellulose (CMC)",236 % of control
COC(=O)C1C2CCC3C2C(C)(C)CCCC31C (stereo not given),T/C,"dose: 25.0 mg/kg/injection, schedule: Q04DX003 (ip), vehicle: saline with Tween-80",100 % of control
same,T/C,"dose: 50.0 mg/kg/injection, schedule: Q04DX003 (ip), vehicle: saline with Tween-80",95 % of control
same,T/C,[3],104 % of control
same,T/C,[4],118 % of control
Cc1c2ccc3ccccc3c2c[n+]2ccccc12,T/C,"dose: 5.0 mg/kg/injection, schedule: Q01DX009 (ip), vehicle: saline with Tween-80",118 % of control
same,T/C,"dose: 5.0 mg/kg/injection, schedule: Q04DX003 (ip), vehicle: saline with Tween-80",108 % of control
same,T/C,"dose: 10.0 mg/kg/injection, schedule: Q01DX009 (ip), vehicle: saline with Tween-80",86 % of control
same,T/C,"dose: 10.0 mg/kg/injection, schedule: Q04DX003 (ip), vehicle: saline with Tween-80",108 % of control
same,T/C,"dose: 20.0 mg/kg/injection, schedule: Q04DX003 (ip), vehicle: saline with Tween-80",116 % of control
Cc1c(N)ncc2ccccc12,T/C,"dose: 12.5 mg/kg/injection, schedule: Q04DX003 (ip), vehicle: saline",115 % of control
same,T/C,[5],108 % of control
same,T/C,[6],99 % of control
same,T/C,[7],118 % of control
O=[N+]([O-])c1ccc(F)c(CNc2ncnc3c2ncn3C2CCCCO2)c1 (stereo not given),T/C,"dose: 100.0 mg/kg/injection, schedule: Q01DX001 (ip), vehicle: Klucel (hydroxypropylcellulose) (HPC)",95 % of control
same,T/C,"dose: 200.0 mg/kg/injection, schedule: Q01DX001 (ip), vehicle: Klucel (hydroxypropylcellulose) (HPC)",110 % of control
same,T/C,"dose: 400.0 mg/kg/injection, schedule: Q01DX001 (ip), vehicle: Klucel (hydroxypropylcellulose) (HPC)",105 % of control
C=CCc1ccccc1OC,T/C,[8],118 % of control
same,T/C,[9],104 % of control
CNCCN(C)CCN(C)Cc1ccc(OC)cc1,T/C,"dose: 25.0 mg/kg/injection, schedule: Q01DX009 (ip), vehicle: water",101 % of control
same,T/C,[10],111 % of control
same,T/C,"dose: 50.0 mg/kg/injection, schedule: Q01DX009 (ip), vehicle: water",110 % of control
same,T/C,[11],101 % of control
same,T/C,"dose: 100.0 mg/kg/injection, schedule: Q01DX009 (ip), vehicle: water",93 % of control
same,T/C,"dose: 200.0 mg/kg/injection, schedule: Q01DX009 (ip), vehicle: saline",104 % of control
Nc1nc(N)c2nc(Sc3ccc(Cl)cc3)c(-c3ccccc3)nc2n1,T/C,[3],88 % of control
same,T/C,[12],99 % of control
CCSC(C)C,T/C,[7],100 % of control
same,T/C,[13],104 % of control
same,T/C,[14],95 % of control
CC1CC(C)(C)N=C(C[Si](C)(C)CC2=NC(C)(C)CC(C)O2)O1 (stereo not given),T/C,"dose: 25.0 mg/kg/injection, schedule: Q04DX003 (ip), vehicle: Klucel (hydroxypropylcellulose) (HPC)",114 % of control
same,T/C,"dose: 50.0 mg/kg/injection, schedule: Q04DX003 (ip), vehicle: Klucel (hydroxypropylcellulose) (HPC)",109 % of control
same,T/C,"dose: 100.0 mg/kg/injection, schedule: Q04DX003 (ip), vehicle: Klucel (hydroxypropylcellulose) (HPC)",113 % of control
CCN(CC)CC(COC)Oc1cc(C)ccc1C(C)C (stereo not given),T/C,[8],100 % of control
same,T/C,[9],91 % of control
COc1ccc(C=Nc2ccccc2N=Cc2ccc(OC)c(OC)c2)cc1OC,T/C,[9],113 % of control
same,T/C,[3],110 % of control
same,T/C,[15],100 % of control
same,T/C,[4],110 % of control
same,T/C,"dose: 400.0 mg/kg/injection, schedule: Q01DX009 (ip), vehicle: saline with Tween-80",100 % of control
same,T/C,[12],100 % of control
Nc1ccc2c(-c3cccc([N+](=O)[O-])c3)cc(=O)[nH]c2n1,T/C,[7],88 % of control
same,T/C,[13],87 % of control
same,T/C,[14],87 % of control
Nc1nnc2cc(F)ccc2n1,T/C,"dose: 50.0 mg/kg/injection, schedule: Q01DX009 (ip), vehicle: Klucel (hydroxypropylcellulose) (HPC)",100 % of control
same,T/C,"dose: 100.0 mg/kg/injection, schedule: Q01DX009 (ip), vehicle: Klucel (hydroxypropylcellulose) (HPC)",112 % of control
same,T/C,"dose: 200.0 mg/kg/injection, schedule: Q01DX009 (ip), vehicle: Klucel (hydroxypropylcellulose) (HPC)",102 % of control
CC1C=CCC(C)(C)C1 (stereo not given),T/C,[16],104 % of control
same,T/C,[8],100 % of control
same,T/C,[9],100 % of control and 113 % of control
COC(=O)C(NC(=O)C(NC(=O)C(N)C(C)C)C(C)C)C(C)C (stereo not drawn) (H-Val-Val-Val-OMe; configuration not given here),T/C,"dose: 50.0 mg/kg/injection, schedule: Q01DX005 (ip), vehicle: saline",101 % of control
same,T/C,"dose: 100.0 mg/kg/injection, schedule: Q01DX005 (ip), vehicle: saline",99 % of control
same,T/C,"dose: 200.0 mg/kg/injection, schedule: Q01DX005 (ip), vehicle: saline",92 % of control
CCCCC(CC)C(=O)[O][Sn]([CH2]CCC)([CH2]CCC)[O]C(=O)C(CC)CCCC (stereo not given),T/C,"dose: 6.25 mg/kg/injection, schedule: Q04DX003 (ip), vehicle: acetone",91 % of control
same,T/C,"dose: 12.5 mg/kg/injection, schedule: Q04DX003 (ip), vehicle: acetone",95 % of control
O=S(=O)(c1ccccc1)c1nn2nnnc2c2ccccc12,T/C,[16],86 % of control
same,T/C,[8],94 % of control
same,T/C,[9],95 % of control
COc1cc2ccc3cc[n+](C)cc3c2cc1OC,T/C,[2],95 % of control
same,T/C,[5],104 % of control
same,T/C,[10],96 % of control and 100 % of control
same,T/C,[6],95 % of control
same,T/C,[11],86 % of control
same,T/C,[7],95 % of control and 104 % of control
same,T/C,[13],90 % of control
CC1(C)C=CN2C(=O)C3=CCCN3C(=O)C2CC12Nc1ccccc1C2=O (stereo not given),T/C,"dose: 6.25 mg/kg/injection, schedule: Q01DX009 (ip), vehicle: saline",94 % of control
same,T/C,[1],104 % of control
same,T/C,[2],110 % of control
same,T/C,[10],100 % of control
COC(=O)/C(=C/c1ccccc1)c1ccccc1,T/C,[8],101 % of control
same,T/C,[9],99 % of control
same,T/C,[15],96 % of control

# — PubChem BioAssay AID328 (DTP/NCI, 2004)
